This is an account of results in PubChem BioAssay (NCI).

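48-hour exposure; five concentrations; linearly interpolated endpoints. GI50 is the concentration that inhibits growth by half. TGI: concentration producing complete growth inhibition.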

Some test systems named below: SNB-19 CNS; T-47D breast; SF-268 CNS; HCC-2998 colon; OVCAR-3 ovarian; MDA-MB-435; M14 melanoma; SK-OV-3 ovarian; SR leukemia; MCF7 breast.
Holding throughout (test): NCI anticancer screen, dose series, 48 h

Take `CC1(C)N=C(N)N=C(N)N1c1ccc(OCCCNC(=O)Nc2ccc(S(=O)(=O)F)cc2)c(Cl)c1`: the GI50 was 1.08 µM in the test on SNB-19 CNS; 5.65 µM with T-47D breast; 0.199 µM in the test on SF-268 CNS; 0.832 µM with HCC-2998 colon; 1.55 µM with OVCAR-3 ovarian; 0.143 µM with MDA-MB-435. Further, the GI50 with M14 melanoma is 0.493 µM; in the test with SK-OV-3 ovarian, 8.83 µM; in the test with SR leukemia it was 0.0376 µM; in the test with MCF7 breast it was 0.238 µM. Besides, the TGI with SNB-19 CNS, with T-47D breast, with SF-268 CNS, in the test on HCC-2998 colon, in the test with OVCAR-3 ovarian and in the test with MDA-MB-435 was greater than 100 µM each time. For the same molecule, the TGI in the test with M14 melanoma, in the test with SK-OV-3 ovarian, in the test with SR leukemia and with MCF7 breast was greater than 100 µM in each case.

Regarding `Cn1ncnc1[C@@H]1c2n[nH]c(=O)c3cc(F)cc(c23)N[C@H]1c1ccc(F)cc1`, the GI50 in the test with SNB-19 CNS, in the test on T-47D breast, in the test with SF-268 CNS, in the test on HCC-2998 colon, with OVCAR-3 ovarian and in the test on MDA-MB-435 was greater than 100 µM each time. In addition, the GI50 is greater than 100 µM in the test on M14 melanoma, greater than 100 µM with SK-OV-3 ovarian, 33.2 µM in the test with SR leukemia and greater than 100 µM in the test on MCF7 breast. The TGI in the test on SNB-19 CNS, with T-47D breast, with SF-268 CNS, in the test with HCC-2998 colon, in the test with OVCAR-3 ovarian and with MDA-MB-435 was greater than 100 µM in each case. The TGI in the test on M14 melanoma, in the test with SK-OV-3 ovarian, in the test with SR leukemia and in the test with MCF7 breast was greater than 100 µM each time.

As for `Nc1c(C(=O)Nc2cccc(Cl)c2)sc2nc3c(cc12)C(=O)CCC3`, the GI50 in the test on SNB-19 CNS was 0.529 µM; with T-47D breast, 0.422 µM; in the test on SF-268 CNS, greater than 45.4 µM; in the test on HCC-2998 colon it was 0.849 µM; in the test with OVCAR-3 ovarian, 0.305 µM; with MDA-MB-435 it was 0.0563 µM. The GI50 with M14 melanoma was 0.485 µM; in the test on SK-OV-3 ovarian, 0.313 µM; in the test with SR leukemia, 0.383 µM; in the test with MCF7 breast it was 0.201 µM. Also, the TGI is greater than 100 µM in the test on SNB-19 CNS; greater than 100 µM in the test with T-47D breast; greater than 100 µM in the test on SF-268 CNS; greater than 100 µM with HCC-2998 colon; greater than 100 µM in the test with OVCAR-3 ovarian; 0.284 µM with MDA-MB-435. In addition, the TGI in the test on M14 melanoma was greater than 100 µM; in the test on SK-OV-3 ovarian it was greater than 70.5 µM; with SR leukemia, greater than 100 µM; in the test with MCF7 breast it was greater than 100 µM.

In the case of `Nc1ccc(/C=C/c2ccc3ncccc3c2)cc1`, the GI50 in the test with SNB-19 CNS, in the test on T-47D breast, in the test with SF-268 CNS, in the test on HCC-2998 colon, with OVCAR-3 ovarian and in the test on MDA-MB-435 was greater than 100 µM each time. In addition, the GI50 with M14 melanoma, in the test on SK-OV-3 ovarian, with SR leukemia and in the test on MCF7 breast was greater than 100 µM throughout. Moreover, the TGI in the test on SNB-19 CNS, in the test with T-47D breast, in the test on SF-268 CNS, with HCC-2998 colon, in the test on OVCAR-3 ovarian and with MDA-MB-435 was greater than 100 µM throughout. Moreover, the TGI in the test on M14 melanoma, in the test on SK-OV-3 ovarian, in the test with SR leukemia and with MCF7 breast was greater than 100 µM each time.

Regarding `ClC1=C(Cl)C(Cl)(C2(Cl)C(Cl)=C(Cl)C(Cl)=C2Cl)C(Cl)=C1Cl`, the GI50 in the test on SNB-19 CNS was 1.79 µM; with T-47D breast, 0.184 µM; in the test on SF-268 CNS, 1.28 µM; with HCC-2998 colon, 2.13 µM; in the test with OVCAR-3 ovarian it was 0.199 µM; in the test with MDA-MB-435, 0.67 µM. Moreover, the GI50 was 0.252 µM in the test on M14 melanoma, 2.26 µM in the test on SK-OV-3 ovarian, 0.272 µM with SR leukemia and 0.241 µM with MCF7 breast. Besides, the TGI was 3.33 µM in the test on SNB-19 CNS; 0.539 µM in the test on T-47D breast; 4.05 µM with SF-268 CNS; 4 µM in the test on HCC-2998 colon; 0.417 µM in the test on OVCAR-3 ovarian; 2.13 µM in the test with MDA-MB-435. The TGI is 0.716 µM in the test on M14 melanoma, 4.54 µM in the test on SK-OV-3 ovarian, 1.52 µM in the test on SR leukemia and 0.921 µM in the test on MCF7 breast.

Take `Sc1cccc2cccnc12`: the GI50 was 1.82 µM in the test with SNB-19 CNS; 3.07 µM in the test on T-47D breast; 1.35 µM in the test with SF-268 CNS; 3.49 µM in the test with HCC-2998 colon; 0.467 µM in the test with OVCAR-3 ovarian; 2.66 µM with MDA-MB-435. Moreover, the GI50 in the test with M14 melanoma was 0.457 µM; in the test on SK-OV-3 ovarian, 3.04 µM; in the test on SR leukemia it was 0.28 µM; in the test on MCF7 breast, 0.484 µM. Further, the TGI in the test on SNB-19 CNS was 17.3 µM; with T-47D breast, 12.3 µM; with SF-268 CNS, 13.5 µM; in the test on HCC-2998 colon, 16.2 µM; with OVCAR-3 ovarian, 8.01 µM; with MDA-MB-435, 20.5 µM. The TGI was 6.09 µM in the test on M14 melanoma, 13.8 µM with SK-OV-3 ovarian, greater than 56.1 µM in the test with SR leukemia and 11.6 µM with MCF7 breast.

Turning to `CCOC(=O)c1noc2c1CCc1c-2cn(Cc2ccc(OC)cc2)c1-c1cc(OC)c(OC)c(OC)c1`, the GI50 was 0.668 µM in the test with SNB-19 CNS; greater than 100 µM with T-47D breast; 8.07 µM with SF-268 CNS; 5.17 µM with HCC-2998 colon; 0.37 µM in the test on OVCAR-3 ovarian; 0.574 µM in the test with MDA-MB-435. For the same molecule, the GI50 in the test with M14 melanoma was 0.41 µM; in the test with SK-OV-3 ovarian, 5.23 µM; with SR leukemia, 2.09 µM; in the test on MCF7 breast, 0.348 µM. For the same molecule, the TGI was greater than 100 µM with SNB-19 CNS; greater than 100 µM with T-47D breast; greater than 100 µM with SF-268 CNS; greater than 100 µM in the test on HCC-2998 colon; 10.6 µM with OVCAR-3 ovarian; greater than 100 µM in the test with MDA-MB-435. For the same molecule, the TGI in the test with M14 melanoma, in the test with SK-OV-3 ovarian, in the test on SR leukemia and in the test with MCF7 breast was greater than 100 µM throughout.
